Source: ChEMBL document CHEMBL4004838, “Design and synthesis of novel phenyl -1, 4-beta-carboline-hybrid molecules as potential anticancer agents” (Eur J Med Chem, 2017)

Columns and labels:
Format in all cases: functional
[1] = tested on: K562; test: Growth inhibition of human K562 cells incubated for 48 hrs by sulforhodamine B assay; settings: K562, 48 h
[2] = tested on: SR; test: Growth inhibition of human SR cells assessed as cell growth at 0.1 uM incubated for 48 hrs by sulforhodamine B assay relative to control; settings: read-out: Activity
[3] = tested on: MDA-MB-231; test: Growth inhibition of human MDA-MB-231 cells incubated for 48 hrs by sulforhodamine B assay; settings: MDA-MB-231, 48 h
[4] = tested on: K562; test: Growth inhibition of human K562 cells assessed as cell growth at 100 uM incubated for 48 hrs by sulforhodamine B assay relative to control; settings: K562, 48 h, read-out: Activity
[5] = tested on: MCF7; test: Growth inhibition of human MCF7 cells assessed as cell growth at 0.1 uM incubated for 48 hrs by sulforhodamine B assay relative to control; settings: MCF7, 48 h, read-out: Activity
[6] = tested on: EKVX; test: Growth inhibition of human EKVX cells assessed as cell growth at 0.01 uM incubated for 48 hrs by sulforhodamine B assay relative to control; settings: read-out: Activity
[7] = tested on: KM12; test: Growth inhibition of human KM12 cells incubated for 48 hrs by sulforhodamine B assay; settings: KM12, 48 h
[8] = tested on: Hs-578T; test: Growth inhibition of human Hs 578T cells incubated for 48 hrs by sulforhodamine B assay
[9] = tested on: 786-0; test: Growth inhibition of human 786-0 cells assessed as cell growth at 0.1 uM incubated for 48 hrs by sulforhodamine B assay relative to control; settings: 786-0, 48 h, read-out: Activity
[10] = tested on: BT-549; test: Growth inhibition of human BT549 cells assessed as cell growth at 100 uM incubated for 48 hrs by sulforhodamine B assay relative to control; settings: BT-549, 48 h, read-out: Activity
[11] = tested on: HOP-62; test: Growth inhibition of human HOP62 cells assessed as cell growth at 1 uM incubated for 48 hrs by sulforhodamine B assay relative to control; settings: HOP-62, 48 h, read-out: Activity
[12] = tested on: HCT-116; test: Growth inhibition of human HCT116 cells assessed as cell growth at 0.1 uM incubated for 48 hrs by sulforhodamine B assay relative to control; settings: HCT-116, 48 h, read-out: Activity
[13] = tested on: MDA-MB-468; test: Growth inhibition of human MDA-MB-468 cells assessed as cell growth at 0.01 uM incubated for 48 hrs by sulforhodamine B assay relative to control; settings: MDA-MB-468, 48 h, read-out: Activity
[14] = tested on: 786-0; test: Growth inhibition of human 786-0 cells incubated for 48 hrs by sulforhodamine B assay; settings: 786-0, 48 h
[15] = tested on: MOLT-4; test: Growth inhibition of human MOLT4 cells assessed as cell growth at 100 uM incubated for 48 hrs by sulforhodamine B assay relative to control; settings: MOLT-4, 48 h, read-out: Activity
[16] = tested on: NCI-H322M; test: Growth inhibition of human NCI-H322M cells assessed as cell growth at 0.1 uM incubated for 48 hrs by sulforhodamine B assay relative to control; settings: read-out: Activity
[17] = tested on: UACC-257; test: Growth inhibition of human UACC257 cells incubated for 48 hrs by sulforhodamine B assay; settings: UACC-257, 48 h
[18] = tested on: PC-3; test: Growth inhibition of human PC3 cells assessed as cell growth at 0.01 uM incubated for 48 hrs by sulforhodamine B assay relative to control; settings: PC-3, 48 h, read-out: Activity
[19] = tested on: IGROV-1; test: Growth inhibition of human IGROV1 cells assessed as cell growth at 0.1 uM incubated for 48 hrs by sulforhodamine B assay relative to control; settings: IGROV-1, 48 h, read-out: Activity
[20] = tested on: SNB-19; test: Growth inhibition of human SNB19 cells assessed as cell growth at 0.01 uM incubated for 48 hrs by sulforhodamine B assay relative to control; settings: SNB-19, 48 h, read-out: Activity
[21] = tested on: HOP-62; test: Growth inhibition of human HOP62 cells incubated for 48 hrs by sulforhodamine B assay; settings: HOP-62, 48 h
[22] = tested on: Malme-3M; test: Growth inhibition of human MALME-3M cells assessed as cell growth at 1 uM incubated for 48 hrs by sulforhodamine B assay relative to control; settings: read-out: Activity
[23] = tested on: HOP-92; test: Growth inhibition of human HOP92 cells assessed as cell growth at 1 uM incubated for 48 hrs by sulforhodamine B assay relative to control; settings: HOP-92, 48 h, read-out: Activity
[24] = tested on: SK-MEL-5; test: Growth inhibition of human SK-MEL-5 cells assessed as cell growth at 0.1 uM incubated for 48 hrs by sulforhodamine B assay relative to control; settings: SK-MEL-5, 48 h, read-out: Activity
[25] = tested on: SR; test: Growth inhibition of human SR cells assessed as cell growth at 0.01 uM incubated for 48 hrs by sulforhodamine B assay relative to control; settings: read-out: Activity
[26] = tested on: SF-268; test: Growth inhibition of human SF268 cells incubated for 48 hrs by sulforhodamine B assay; settings: SF-268, 48 h
[27] = tested on: A549; test: Growth inhibition of human A549/ATCC cells assessed as cell growth at 1 uM incubated for 48 hrs by sulforhodamine B assay relative to control; settings: A549, 48 h, read-out: Activity
[28] = tested on: SNB-19; test: Growth inhibition of human SNB19 cells incubated for 48 hrs by sulforhodamine B assay; settings: SNB-19, 48 h
[29] = tested on: A498; test: Growth inhibition of human A498 cells assessed as cell growth at 0.01 uM incubated for 48 hrs by sulforhodamine B assay relative to control; settings: A498, 48 h, read-out: Activity
[30] = read-out: LC50 (the source's name)
[31] = read-out: pLC50 (the source's name) (converted)

`c1ccc2[nH]c(-c3ccc(-c4nccc5c4[nH]c4ccccc45)cc3)nc2c1` gave a GI50 ([1]; read-out: GI50) of 2.33 µM, a CC50 [1, 30] of 4.24 µM and a TGI ([1]; read-out: TGI) of 5.47 µM. For the same compound, the GI50 ([1]; read-out: pGI50 (converted)) was 2.34 µM, the CC50 [1, 31] was 42.7 µM and the TGI ([1]; read-out: pTGI (converted)) was 5.5 µM. For the same compound, the growth at 0.1 µM [2] was 93%, the GI50 ([3]; read-out: GI50) was 2.39 µM and the TGI ([3]; read-out: TGI) was 5.83 µM. The GI50 ([3]; read-out: pGI50 (converted)) was 2.4 µM, the CC50 [3, 31] was over 100 µM and the TGI ([3]; read-out: pTGI (converted)) was 5.89 µM. It also gave a growth at 100 µM [4] of 59%, a growth at 0.1 µM [5] of 96% and a growth at 0.01 µM [6] of 94%. For the same compound, the LC50 ([7]; read-out: LC50) was 5.29 µM, the GI50 ([7]; read-out: pGI50 (converted)) was 3.63 µM and the LC50 ([7]; read-out: pLC50 (converted)) was 52.5 µM. The TGI ([7]; read-out: pTGI (converted)) was 15.8 µM, the GI50 ([8]; read-out: GI50) was 2.23 µM and the TGI ([8]; read-out: TGI) was 5.93 µM. The GI50 ([8]; read-out: pGI50 (converted)) was 2.24 µM, the CC50 [8, 31] was over 100 µM and the TGI ([8]; read-out: pTGI (converted)) was 5.89 µM. The growth at 0.1 µM [9] was 92%, the growth at 100 µM [10] was 43% and the growth at 1 µM [11] was 88%. For the same compound, the growth at 0.1 µM [12] was 96%, the growth at 0.01 µM [13] was 90% and the GI50 ([14]; read-out: GI50) was 2.24 µM. For the same compound, the CC50 [14, 30] was 3.83 µM, the TGI ([14]; read-out: TGI) was 6.3 µM and the GI50 ([14]; read-out: pGI50 (converted)) was 2.24 µM. It also gave a CC50 [14, 31] of 38 µM, a TGI ([14]; read-out: pTGI (converted)) of 6.31 µM and a growth at 100 µM [15] of 54%. It also gave a growth at 0.1 µM [16] of 101%, a GI50 ([17]; read-out: GI50) of 1.83 µM and a CC50 [17, 30] of 6.73 µM. For the same compound, the TGI ([17]; read-out: TGI) was 3.5 µM, the CC50 [17, 31] was 6.76 µM and the growth at 0.01 µM [18] was 98%. The growth at 0.1 µM [19] was 99%, the growth at 0.01 µM [20] was 91% and the GI50 ([21]; read-out: GI50) was 2.8 µM. For the same compound, the LC50 (concentration killing 50% of cells) ([21]; read-out: LC50) was 5.31 µM, the GI50 ([21]; read-out: pGI50 (converted)) was 2.82 µM and the LC50 (concentration killing 50% of cells) ([21]; read-out: pLC50 (converted)) was 53.7 µM. It also gave a TGI ([21]; read-out: pTGI (converted)) of 10.7 µM, a growth at 1 µM [22] of 96% and a growth at 1 µM [23] of 85%. For the same compound, the growth at 0.1 µM [24] was 100%, the growth at 0.01 µM [25] was 97% and the GI50 ([26]; read-out: GI50) was 2.89 µM. The CC50 [26, 30] was 8.98 µM, the GI50 ([26]; read-out: pGI50 (converted)) was 2.88 µM and the CC50 [26, 31] was 89.1 µM. For the same compound, the TGI ([26]; read-out: pTGI (converted)) was 10.2 µM, the growth at 1 µM [27] was 96% and the GI50 ([28]; read-out: GI50) was 4.21 µM. The CC50 [28, 30] was over 1 µM, the GI50 ([28]; read-out: pGI50 (converted)) was 4.17 µM and the CC50 [28, 31] was over 100 µM. The TGI ([28]; read-out: pTGI (converted)) was 30.2 µM and the growth at 0.01 µM [29] was 96%.
